{"source": "patent US20110104103A1", "about": "“Method of conjugating therapeutic compounds to cell targeting devices via metal complexes” (KREATECH BIOTECHNOLOGY B.V., priority 2005, published 2011)", "key": {"[1]": {"test_system": "UUO rats", "test": "Unilateral ureteral obstruction (UUO) model of renal fibrosis", "type": "in vivo", "settings": "day 3", "protocol": "Animals were divided into 4 groups: normal rats, fibrotic control animals (vehicle, 5% glucose), TKI-LZM (25 mg/kg equiv. to 630 μg/kg TKI) and free, unconjugated TKI (630 μg/kg). TKI was dissolved in 20% hydroxylpropyl-β-cyclodextrin in water with 5% DMSO, whereas TKI-LZM was dissolved in 5% glucose. To allow unhindered uptake of the products in the kidneys, rats were injected intravenously with either of these compounds 2 h before the uretheral obstruction. Left kidneys and ureter were exposed via a flank-incision under isoflurane anesthesia after which the ureter was ligated at three sites with 4-0 silk near the hilum. After 3 days, animals were sacrificed under anesthesia and kidneys were gently flushed and harvested. Kidney cortex pieces were snap-frozen to isolate RNA as described above. Kidney pieces were fixed in 4% formalin solution in PBS to make paraffin-embedded sections for anti-α-SMA and ED-1 immunohistochemical staining and morphometric analysis."}, "[2]": {"test": "Drug release studies (stability of drug-carrier linkage)", "type": "in vitro ADME", "protocol": "The stability of the drug-carrier linkage was investigated by incubating cell targeting complexes at 37° C. under several conditions, e.g. buffers, buffers spiked with drug releasing substances or biological media."}, "[3]": {"test": "Pharmacokinetic evaluation of kidney directed complexes in healthy rats", "type": "in vivo, Wistar rats", "protocol": "Organ distribution studies with this type of cell targeting complexes were performed in healthy Wistar rats. All in vivo experiments were approved by the Local Committee for Care and Use of Laboratory Animals.\nRats were injected intravenously with a single dose of the SB202190-cisULS-lysozyme conjugate (16 mg/kg equivalent to 376 μg/kg of SB202190; dissolved in 5% glucose) via the penile vein. Animals were sacrificed at different time points between 1 and 72 h after administration. Blood samples were collected by heart puncture and kidneys were isolated after flushing the organs gently with saline. Serum and organs were snap-frozen into liquid nitrogen immediately. Urine samples were collected using metabolic cages and combined with the urine collected from urinary bladder after sacrificing the animals. Kidneys were weighed, homogenized (1:3 w/v in PBS, Turrax homogenization) and then stored at −80° C. Released drug amounts were estimated by HPLC analysis after extraction as described before. To estimate total drug (bound plus released), samples were treated with KSCN to release SB202190 from the ULS linker as described above and then subjected to HPLC analysis. Anti-LZM immunohistochemical staining was performed on cryostat kidney sections to detect the uptake of the conjugate in tubular cells.\nRenal drug levels were assayed in KSCN-treated kidney homogenates and serum samples using HPLC methods optimized for the respective drugs. Y27632 was analyzed on a C18 reversed-phase SunFire™ column C18 using a mobile phase of water-methanol-trifluoroacetic acid (86:14:0.1, v/v/v; pH 2.0) at a flow rate of 1 ml/min. TKI was analyzed on the same column using a mobile phase consisted of water-acetonitrile-trifluoroacetic acid (91:09:0.1, v/v/v; pH 2.0) at a flow rate of 1 ml/min."}, "[4]": {"test": "Platinum-related toxicity of SB202190-cisULS-LZM in normal rats", "type": "in vivo, Male Wistar rats", "excerpt": "In addition to drug related effects, we investigated whether administration of cell targeting complexes to healthy rats induced potential platinum related toxicity. Since the kidney is one of the major sites of platinum toxicity of cytostatic compounds, we performed these studies with SB202190-cisULS-LZM which accumulates in the kidney. We investigated morphology and induction of apoptosis (TUNEL staining), as well as basic renal parameters.\nIn order to detect potential platinum-related toxicity of kidney directed cell targeting complexes, we evaluated SB202190-cisULS-LZM in healthy rats.\nTo examine the effect on renal function, serum and urine creatinine levels were determined and creatinine clearances were calculated. […] To calculate proteinuria for the SB202190-cisULS-LZM group, the mean of the urinary protein levels at different days was taken. TUNEL stainings were performed on frozen kidney sections to examine the number of apoptotic cells. In addition, we determined the platinum levels in kidneys using […] after digestion of the tissue in concentrated nitric acid for 24 h at room temperature and heating at 70° C. until the formation of clear solution."}, "[5]": {"test_system": "activated hepatic stellate cells (HSC)", "test": "Immunohistochemical staining of fibrosis markers in HSC after 24 h incubation", "type": "cell-based", "settings": "conjugates 1 mg/ml (100 μM PTX), non-targeted PTX 1 mM", "protocol": "The pharmacological effects of the conjugates were tested on different cultured cell types, e.g. activated hepatic stellate cells (HSC), kidney tubular cells (HK-2 cells) or human umbilical cord endothelial cells (HUVEC). Typically, cells were incubated for 24 h at 37° C. with the conjugates. Subsequently, the cells were subjected to analyses related to pharmacological activity of the coupled drug (gene expression analysis, immunohistochemcial evaluation of effect markers), or assays related to potential cytotoxicity of the complexes (cell viability assays, apoptosis assays).\nFIG. 5. […] Cells were stained for collagen type I or α-smooth muscle actin and counterstained with hematoxillin. […] Magnification 10×. One of the hallmarks of liver fibrosis is the induced expression and production of a-smooth muscle actin (aSMA) and collagen type 1 by activated HSC. These proteins were therefore selected as read-out parameters of the antifibrotic effects of the targeted PTX."}, "[6]": {"test_system": "endothelial cells (HUVEC)", "test": "Binding of 89Zr-radiolabeled RGD-equipped complex to endothelial cells", "set-up": "species or system human", "settings": "4° C. for 4 h", "description": "The interaction of cell targeting complexes with target cells was investigated in cultured target cells. Typically, in vitro targeting studies were performed by incubating target cells with the complexes, at either 4° C. or 37° C. Binding and/or internalization of the complexes by target cells was detected by either immunohistochemical staining for the complex (e.g. anti-HSA or anti-LZM staining) or by quantification of a radioactive reporter group that had been introduced in the complex (e.g. ^125I).\nBinding of RGD-equipped complexes to endothelial cells was studied using ^89Zr-radiolabeled compounds."}, "[7]": {"biological_target": "T1, αvβ3-integrin expressed on the surface of HUVEC (Homo sapiens, UniProt P05106+P06756)", "T1 construct": "αvβ3-integrin expressed on the surface of HUVEC; endogenous in cells; host or cells: HUVEC (confluent monolayers)", "T1 sequence (P06756 31-889 limits assumed)": "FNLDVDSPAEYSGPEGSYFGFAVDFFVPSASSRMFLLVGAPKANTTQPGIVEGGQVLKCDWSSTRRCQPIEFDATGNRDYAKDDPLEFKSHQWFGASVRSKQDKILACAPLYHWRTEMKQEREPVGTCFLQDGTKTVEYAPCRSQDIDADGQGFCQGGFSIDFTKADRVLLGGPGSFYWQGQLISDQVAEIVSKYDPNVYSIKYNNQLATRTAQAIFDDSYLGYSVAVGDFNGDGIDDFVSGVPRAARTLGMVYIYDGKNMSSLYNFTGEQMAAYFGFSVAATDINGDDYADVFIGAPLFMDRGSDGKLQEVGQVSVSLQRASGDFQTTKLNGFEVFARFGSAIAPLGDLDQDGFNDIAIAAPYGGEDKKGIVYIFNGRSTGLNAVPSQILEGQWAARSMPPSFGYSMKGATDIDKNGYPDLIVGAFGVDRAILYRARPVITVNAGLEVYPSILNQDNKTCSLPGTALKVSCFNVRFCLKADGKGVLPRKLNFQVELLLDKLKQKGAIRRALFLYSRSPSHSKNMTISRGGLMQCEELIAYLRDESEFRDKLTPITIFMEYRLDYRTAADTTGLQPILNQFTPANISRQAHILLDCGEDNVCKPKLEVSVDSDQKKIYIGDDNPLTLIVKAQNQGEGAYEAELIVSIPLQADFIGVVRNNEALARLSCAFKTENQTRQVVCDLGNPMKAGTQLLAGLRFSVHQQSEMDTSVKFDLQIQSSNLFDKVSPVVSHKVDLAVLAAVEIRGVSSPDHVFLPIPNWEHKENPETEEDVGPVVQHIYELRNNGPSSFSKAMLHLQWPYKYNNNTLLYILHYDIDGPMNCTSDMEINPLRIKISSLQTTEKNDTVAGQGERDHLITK", "T1 sequence (P06756 891-1048 partner limits assumed)": "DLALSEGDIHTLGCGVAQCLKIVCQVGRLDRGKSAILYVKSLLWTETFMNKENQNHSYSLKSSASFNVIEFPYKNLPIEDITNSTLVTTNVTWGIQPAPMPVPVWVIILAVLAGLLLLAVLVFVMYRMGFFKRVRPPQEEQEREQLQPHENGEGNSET", "T1 sequence (P05106 27-788)": "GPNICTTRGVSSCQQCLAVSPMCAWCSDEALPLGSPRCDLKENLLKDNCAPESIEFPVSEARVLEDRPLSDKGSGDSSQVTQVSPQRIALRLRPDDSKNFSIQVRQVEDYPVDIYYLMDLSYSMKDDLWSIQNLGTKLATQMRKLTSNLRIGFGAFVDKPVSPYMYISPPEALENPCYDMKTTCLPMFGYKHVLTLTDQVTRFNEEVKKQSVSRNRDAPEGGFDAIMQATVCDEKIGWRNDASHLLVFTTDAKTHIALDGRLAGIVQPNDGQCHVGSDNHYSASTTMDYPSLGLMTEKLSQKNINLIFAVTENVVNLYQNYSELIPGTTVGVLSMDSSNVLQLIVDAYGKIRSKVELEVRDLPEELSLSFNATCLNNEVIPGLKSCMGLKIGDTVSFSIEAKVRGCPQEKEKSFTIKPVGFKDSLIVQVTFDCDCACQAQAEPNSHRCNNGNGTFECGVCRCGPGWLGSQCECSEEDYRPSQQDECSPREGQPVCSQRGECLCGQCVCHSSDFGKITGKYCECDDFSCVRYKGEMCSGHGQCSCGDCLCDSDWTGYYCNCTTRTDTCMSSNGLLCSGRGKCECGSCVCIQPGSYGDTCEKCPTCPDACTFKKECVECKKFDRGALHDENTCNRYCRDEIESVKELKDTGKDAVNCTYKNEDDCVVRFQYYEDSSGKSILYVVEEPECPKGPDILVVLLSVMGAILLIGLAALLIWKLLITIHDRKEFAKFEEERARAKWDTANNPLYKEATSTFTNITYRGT", "test": "Competitive displacement of 125I-labeled echistatin", "settings": "displacement of 125I-echistatin, read-out: IC50 (binding affinity)", "protocol": "In a different experimental setup that allowed the calculation for binding constants, we explored the affinity of RGD-equipped PTK787-cisULS-albumins. ^125I-labeled echistatin was used as a radioligand for αvβ3-integrin expressed on the surface of HUVEC. Competitive binding studies were performed by coincubating using confluent monolayers of HUVEC with the radiolabeled ligand and non-radiolabeled complexes."}, "[8]": {"test_system": "IL8 gene expression in HUVEC treated with TNF", "test": "IL8 gene expression in TNF-treated HUVEC", "type": "cell-based, human", "settings": "10 μM"}, "[9]": {"settings": "5 mg/kg of free SB202190, 4 h after administration; cited from earlier work"}, "[10]": {"test": "Organ distribution and liver losartan levels in BDL rats", "type": "in vivo", "protocol": "The extraction was performed by adding 3 ml of methyl butyl ether to 200 μl of liver homogenate and vortexing for 5 min. Layers were separated by centrifugation at 900×g for 5 min and the aqueous layer was frozen in liquid nitrogen. The upper organic layer was transferred to another borosilicate glass tube and evaporated completely at 60° C. The extraction procedure was repeated twice and the total residue was reconstituted in 200 μl of mobile phase. Chromatography was carried out using a C18 (C18, 5 μm, 4.6×150 mm) reversed-phase column (Surefire, Waters Inc., Milford, Mass., USA) at 40° C. with an isocratic mobile phase consisting of acetonitrile-water-trifluoroacetic acid (30:70:0.1, v/v/v; pH 2.0)."}, "[11]": {"test_system": "hepatic fibrosis in BDL rats", "test": "Antifibrotic effect of losartan-cisULS-M6PHSA in BDL model of liver fibrosis", "type": "in vivo", "settings": "four daily doses", "description": "Ten minutes after the last dose, animals were sacrificed and blood and liver samples were obtained. […] The extraction was performed by adding 3 ml of methyl butyl ether to 200 μl of liver homogenate and vortexing for 5 min. Layers were separated by centrifugation at 900×g for 5 min and the aqueous layer was frozen in liquid nitrogen. The upper organic layer was transferred to another borosilicate glass tube and evaporated completely at 60° C. The extraction procedure was repeated twice and the total residue was reconstituted in 200 μl of mobile phase. Chromatography was carried out using a C18 (C18, 5 μm, 4.6×150 mm) reversed-phase column (Surefire, Waters Inc., Milford, Mass., USA) at 40° C. with an isocratic mobile phase consisting of acetonitrile-water-trifluoroacetic acid (30:70:0.1, v/v/v; pH 2.0).\nAnimal experiments were performed as described above."}, "[12]": {"test_system": "I/R rats", "test": "Unilateral ischemia/reperfusion injury (I/R) model", "type": "in vivo"}, "[13]": {"settings": "normal rats, mean ± SEM, SB-ULS-LZM at 24, 32, 48 and 72 h, cisplatin 3 mg/kg i.v. at 24 h"}, "[14]": {"settings": "four i.v. doses, 20 mg/kg conjugate or 555 μg/kg Y27632"}}, "note": "“Also recorded” adds a separate entry of the source.", "data": [{"compound": "c1ccc(-c2n[nH]cc2-c2ccnc3ccccc23)nc1", "note": "[TKI, 3-(Pyridin-2-yl)-4-(4-quinonyl)-1H-pyrazole]", "values": [{"measurement": "MCP-1 gene expression in kidney", "setting": "[1]; single dose 25 mg/kg conjugate or 630 μg/kg TKI", "result": "did not lower the expressions of MCP-1"}, {"measurement": "expression of the fibrosis marker α-SMA", "setting": "[1]; single dose", "result": "significantly decreased"}, {"measurement": "infiltrated macrophages (ED-1 immunostaining)", "setting": "[1]; single dose", "result": "a reduction of ED-1 immunostaining"}]}, {"compound": "SB202190-cisULS-LZM", "values": [{"measurement": "Stability / release of SB202190", "setting": "[2]; 37° C. in PBS pH 7.4 or rat serum", "result": "high stability in buffer or serum"}, {"measurement": "Release of SB202190", "setting": "[2]; 37° C., kidney homogenate in PBS 1/3 (w/v)", "result": "continuously released free drug"}, {"measurement": "free drug in serum / serum stability", "setting": "[3]; 16 mg/kg i.v. single dose, 1-72 h", "result": "free drug was absent at all time points; also recorded: remained stable in the serum"}, {"measurement": "accumulation in the kidneys", "setting": "[3]; 16 mg/kg i.v., within 1 h", "result": "20 % of the injected dose"}, {"measurement": "accumulation in proximal tubular cells (anti-LZM staining)", "setting": "[3]; kidney sections", "result": "accumulation of the conjugate in proximal tubular cells was confirmed"}, {"measurement": "renal levels of free and bound drug over time", "setting": "[3]; single dose 16 mg/kg i.v.", "result": "continuous levels of both free drug and bound drug during a three-day period"}, {"measurement": "tubular cell apoptosis by TUNEL staining", "setting": "[4]; as compared to untreated rats", "result": "no increase in the number of apoptotic cells"}, {"measurement": "urinary protein levels", "setting": "[4]; in comparison to untreated rats", "result": "an increase in urinary protein levels"}, {"measurement": "TUNEL positive cells", "setting": "[4]; normal rats, kidney sections, mean ± SEM, cisplatin at 24 h", "result": "42.7 ± 18", "unit": "numbers per field"}, {"measurement": "Renal platinum concentration", "setting": "[4]; normal rats, ICP-AAS, mean ± SEM", "result": "37.0 ± 1.2", "unit": "nmol/g"}, {"measurement": "Change in body weight", "setting": "[4]; normal rats, mean ± SEM", "result": "+0.3 ± 1.2 %"}, {"measurement": "Creatinine clearance", "setting": "[4]; [13]", "result": "0.8 ± 0.03", "unit": "mL/min"}, {"measurement": "urinary protein levels", "setting": "[4]; [13]", "result": "29.6 ± 2.0", "unit": "mg/day"}]}, {"compound": "CC(=O)CCCCn1c(=O)c2c(ncn2C)n(C)c1=O", "note": "[PTX, 3,7-dimethyl-1-(5-oxohexyl)purine-2,6-dione]", "values": [{"measurement": "aSMA staining intensity", "setting": "[5]", "result": "reduced the intensity of both collagen type I production and aSMA"}, {"measurement": "collagen type I staining", "setting": "[5]", "result": "reduced the intensity of both collagen type I production and aSMA"}]}, {"compound": "c(RGDf(ε-S-acetylthioacetyl)K) [RGD-peptide]", "values": [{"measurement": "displacement of binding of RGDPEG-SB202190-cisULS-HSA", "setting": "[6]", "result": "could be displaced"}]}, {"compound": "RGDPEG-avidin: avidin with RGD-peptide via vinylsulfone-PEG-NHS, average 5.4 RGD groups per avidin", "values": [{"measurement": "IC50", "setting": "[7]", "result": 134, "unit": "nM"}]}, {"compound": "Oc1ccc(-c2nc(-c3ccncc3)c(-c3ccc(F)cc3)[nH]2)cc1", "note": "[SB202190, 4-(-Fluorophenyl)-2-(4-hydroxy-phenyl)-5-(4-pyridyl)-1H-imidazole]", "values": [{"measurement": "IL8 gene expression level after inhibition", "setting": "[8]", "result": 40, "unit": "%"}, {"measurement": "fraction distributed to the kidney", "setting": "[9]", "result": 0.2, "unit": "%"}]}, {"compound": "CCCCc1nc(Cl)c(CO)n1Cc1ccc(-c2ccccc2-c2nn[nH]n2)cc1", "note": "[losartan]", "values": [{"measurement": "liver losartan as % of the cumulative dose", "setting": "[10]; BDL rats, 10 min after last dose", "result": 4, "unit": "%"}, {"measurement": "concentration at 10 min", "setting": "[10]; rat, liver, oral, 5 mg/kg/day", "result": 12100, "unit": "ng/g"}, {"measurement": "hepatic fibrosis, Sirius Red staining", "setting": "[11]", "result": "Severe bridging"}, {"measurement": "αSMA-positive cells in liver", "setting": "[11]", "result": "marked accumulation of αSMA-positive cells"}]}, {"compound": "Y27632-cisULS-LZM: Y27632-cisULS reacted with met-LZM, 1-2 Y27632 per LZM", "values": [{"measurement": "infiltration of macrophages, ED-1 staining morphometric score", "setting": "[12]; [14]", "result": "significantly reduced the morphometric score of the stained areas"}, {"measurement": "α-SMA staining morphometric score", "setting": "[12]; [14]", "result": "significantly reduced the morphometric score of the stained areas"}]}, {"compound": "losartan-cisULS-LZM", "values": [{"measurement": "number of infiltrated macrophages (ED-1)", "setting": "[12]; four doses 20 mg/kg/day", "result": "reduced the number of infiltrated macrophages"}]}]}
